*1 amine or outer side, *2 acyl side, *3 side chain or, on linkers, in order; H or OH if unused. Where a SMILES comes first, the peptide text is derived from it. Side-chain parts run from the residue outwards. The star is where a group is joined. C18 diacid = O=C(O)CCCCCCCCCCCCCCCCC(=O)*; γGlu = O=C(O)[C@H](CCC(=O)[*:2])N[*:1]; Isovaleryl = CC(C)CC(=O)*; AEEA = NCCOCCOCC(=O)O
Molecular target: T1, Human Neuropeptide Y2 Receptor (Homo sapiens, UniProt P49146)
T1 construct: purchased CHEMICON HTS066M
T1 sequence (P49146 1-381): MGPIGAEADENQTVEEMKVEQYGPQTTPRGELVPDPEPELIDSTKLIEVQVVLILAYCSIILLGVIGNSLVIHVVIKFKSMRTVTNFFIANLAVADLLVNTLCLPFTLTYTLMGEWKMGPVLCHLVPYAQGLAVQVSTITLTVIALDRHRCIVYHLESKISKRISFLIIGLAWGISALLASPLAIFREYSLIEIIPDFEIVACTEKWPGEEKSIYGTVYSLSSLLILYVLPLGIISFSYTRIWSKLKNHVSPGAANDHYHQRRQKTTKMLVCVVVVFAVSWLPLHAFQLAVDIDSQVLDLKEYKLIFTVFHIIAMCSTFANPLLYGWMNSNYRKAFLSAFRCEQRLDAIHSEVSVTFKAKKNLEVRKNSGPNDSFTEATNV
Test: Radioligand binding competition assay (RLB)
Details: Table 3; human 125I-PYY (1-36) 0.02 nM, Y2 receptor membranes; read-out: Ki
How it was run: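 Competition binding on human Y2 receptor membranes, 0.5 μg protein/well, in 50 mM HEPES, 5 mM MgCl2, 1 mM CaCl2, pH 7.4, 0.2% ovalbumin; peptides diluted from 1 mM DMSO stocks.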

`CC(C)CC(=O)N[C@@H](C)C(=O)N1CCC[C@H]1C(=O)N[C@@H](CCC(=O)O)C(=O)N[C@@H](CCCCNC(=O)COCCOCCNC(=O)COCCOCCNC(=O)CC[C@H](NC(=O)CCCCCCCCCCCCCCCCC(=O)O)C(=O)O)C(=O)N1CCC[C@H]1C(=O)N[C@@H](CCC(=O)O)C(=O)N[C@@H](CCC(=O)O)C(=O)N[C@@H](CCC(=O)O)C(=O)N[C@@H](C)C(=O)N[C@@H](CO)C(=O)N1CCC[C@H]1C(=O)N[C@@H](CCC(=O)O)C(=O)N[C@@H](CCC(=O)O)C(=O)N[C@@H](CC(C)C)C(=O)N[C@@H](CCC(=O)O)C(=O)N[C@@H](CCC(N)=O)C(=O)N[C@@H](Cc1ccc(O)cc1)C(=O)N[C@@H](Cc1ccc(O)cc1)C(=O)N[C@H](C(=O)N[C@@H](CO)C(=O)N[C@@H](CC(C)C)C(=O)N[C@@H](CCCNC(=N)N)C(=O)N[C@@H](Cc1c[nH]cn1)C(=O)N[C@@H](Cc1ccc(O)cc1)C(=O)N[C@@H](Cc1ccc(O)cc1)C(=O)N[C@@H](CC(N)=O)C(=O)N[C@@H](Cc1c[nH]c2ccccc12)C(=O)N[C@@H](CC(C)C)C(=O)N[C@H](C(=O)N[C@@H](CCCNC(=N)N)C(=O)N[C@@H](CCC(N)=O)C(=O)N[C@@H](CCCNC(=N)N)C(=O)N[C@@H](Cc1ccc(O)cc1)C(N)=O)[C@@H](C)O)C(C)C` [Compound 170, N{alpha-4}-(3-methylbutanoyl)-N{epsilon-7}-[2-(2-{2-[2-(2-{2-[(4S)-4-carboxy-4-(17-carboxyheptadecanamido)butanamido]ethoxy}ethoxy)acetamido]ethoxy}ethoxy)acetamido]-[4A,7K,9E,11E,18E,19Q,22V,28Y,30W,31L]hPYY (4-36)] (Isovaleryl-APEK([AEEA-AEEA-γGlu-C18 diacid])PEEEASPEELEQYYVSLRHYYNWLTRQRY-NH2) gave a Ki of 12.3 nM.

In the case of `CC(C)CC(=O)N[C@@H](C)C(=O)N1CCC[C@H]1C(=O)N[C@@H](CCC(=O)O)C(=O)N[C@@H](CCCCNC(=O)COCCOCCNC(=O)COCCOCCNC(=O)CC[C@H](NC(=O)CCCCCCCCCCCCCCCCC(=O)O)C(=O)O)C(=O)N1CCC[C@H]1C(=O)N[C@@H](CCC(=O)O)C(=O)N[C@@H](CCC(=O)O)C(=O)N[C@@H](CC(=O)O)C(=O)N[C@@H](CO)C(=O)N[C@@H](CO)C(=O)N1CCC[C@H]1C(=O)N[C@@H](CCC(=O)O)C(=O)N[C@@H](CCC(=O)O)C(=O)N[C@@H](CC(C)C)C(=O)N[C@@H](CCC(N)=O)C(=O)N[C@@H](CCCNC(=N)N)C(=O)N[C@@H](Cc1ccc(O)cc1)C(=O)N[C@@H](Cc1ccc(O)cc1)C(=O)N[C@H](C(=O)N[C@@H](CCC(=O)O)C(=O)N[C@@H](CC(C)C)C(=O)N[C@@H](CCCNC(=N)N)C(=O)N[C@@H](Cc1c[nH]cn1)C(=O)N[C@@H](Cc1ccc(O)cc1)C(=O)N[C@@H](Cc1ccc(O)cc1)C(=O)N[C@@H](CC(N)=O)C(=O)N[C@@H](Cc1c[nH]c2ccccc12)C(=O)N[C@@H](CC(C)C)C(=O)N[C@H](C(=O)N[C@@H](CCCNC(=N)N)C(=O)N[C@@H](CCC(N)=O)C(=O)N[C@@H](CCCNC(=N)N)C(=O)N[C@@H](Cc1ccc(O)cc1)C(N)=O)[C@@H](C)O)C(C)C` [Compound 177, N{alpha-4}-(3-methylbutanoyl)-N{epsilon-7}-[2-(2-{2-[2-(2-{2-[(4S)-4-carboxy-4-(17-carboxyheptadecanamido)butanamido]ethoxy}ethoxy)acetamido]ethoxy}ethoxy)acetamido]-[4A,7K,9E,12S,18Q,22V,23E,28Y,30W,31L]hPYY (4-36)], the Ki is reported as 2.55 nM.

`CC(C)CC(=O)N[C@@H](C)C(=O)N1CCC[C@H]1C(=O)N[C@@H](CCC(=O)O)C(=O)N[C@@H](CCCCNC(=O)COCCOCCNC(=O)COCCOCCNC(=O)CC[C@H](NC(=O)CCCCCCCCCCCCCCCCC(=O)O)C(=O)O)C(=O)N1CCC[C@H]1C(=O)N[C@@H](CCC(=O)O)C(=O)N[C@@H](CCC(=O)O)C(=O)N[C@@H](CC(=O)O)C(=O)N[C@@H](C)C(=O)N[C@H](C(=O)N1CCC[C@H]1C(=O)N[C@@H](CCC(=O)O)C(=O)N[C@@H](CCC(=O)O)C(=O)N[C@H](C(=O)N[C@@H](CCC(=O)O)C(=O)N[C@@H](CCCNC(=N)N)C(=O)N[C@@H](Cc1ccc(O)cc1)C(=O)N[C@@H](Cc1ccc(O)cc1)C(=O)N[C@H](C(=O)N[C@@H](CO)C(=O)N[C@@H](CC(C)C)C(=O)N[C@@H](CCCNC(=N)N)C(=O)N[C@@H](Cc1c[nH]cn1)C(=O)N[C@@H](Cc1ccc(O)cc1)C(=O)N[C@@H](Cc1ccc(O)cc1)C(=O)N[C@@H](CC(N)=O)C(=O)N[C@@H](Cc1c[nH]c2ccccc12)C(=O)N[C@@H](CC(C)C)C(=O)N[C@H](C(=O)N[C@@H](CCCNC(=N)N)C(=O)N[C@@H](CCC(N)=O)C(=O)N[C@@H](CCCNC(=N)N)C(=O)N[C@@H](Cc1ccc(O)cc1)C(N)=O)[C@@H](C)O)C(C)C)[C@@H](C)O)[C@@H](C)O` [Compound 178, N{alpha-4}-(3-methylbutanoyl)-N{epsilon-7}-[2-(2-{2-[2-(2-{2-[(4S)-4-carboxy-4-(17-carboxyheptadecanamido)butanamido]ethoxy}ethoxy)acetamido]ethoxy}ethoxy)acetamido]-[4A,7K,9E,13T,17T,18E,22V,28Y,30W,31L]hPYY (4-36)] (Isovaleryl-APEK([AEEA-AEEA-γGlu-C18 diacid])PEEDATPEETERYYVSLRHYYNWLTRQRY-NH2) gave a Ki of 2.05 nM.

With `CC(C)CC(=O)N[C@@H](C)C(=O)N1CCC[C@H]1C(=O)N[C@@H](C)C(=O)N[C@@H](CCCCNC(=O)COCCOCCNC(=O)COCCOCCNC(=O)CC[C@H](NC(=O)CCCCCCCCCCCCCCCCC(=O)O)C(=O)O)C(=O)N1CCC[C@H]1C(=O)N[C@@H](CCC(=O)O)C(=O)N[C@@H](CCC(=O)O)C(=O)N[C@@H](CC(=O)O)C(=O)N[C@@H](C)C(=O)N[C@@H](CO)C(=O)N1CCC[C@H]1C(=O)N[C@@H](C)C(=O)N[C@@H](CCC(=O)O)C(=O)N[C@@H](CC(C)C)C(=O)N[C@@H](CCC(N)=O)C(=O)N[C@@H](CCCNC(=N)N)C(=O)N[C@@H](Cc1ccc(O)cc1)C(=O)N[C@@H](Cc1ccc(O)cc1)C(=O)N[C@H](C(=O)N[C@@H](CO)C(=O)N[C@@H](CC(C)C)C(=O)N[C@@H](CCCNC(=N)N)C(=O)N[C@@H](Cc1c[nH]cn1)C(=O)N[C@@H](Cc1ccc(O)cc1)C(=O)N[C@@H](Cc1ccc(O)cc1)C(=O)N[C@@H](CC(N)=O)C(=O)N[C@@H](Cc1c[nH]c2ccccc12)C(=O)N[C@@H](CC(C)C)C(=O)N[C@H](C(=O)N[C@@H](CCCNC(=N)N)C(=O)N[C@@H](CCC(N)=O)C(=O)N[C@@H](CCCNC(=N)N)C(=O)N[C@@H](Cc1ccc(O)cc1)C(N)=O)[C@@H](C)O)C(C)C` [Compound 179, N{alpha-4}-(3-methylbutanoyl)-N{epsilon-7}-[2-(2-{2-[2-(2-{2-[(4S)-4-carboxy-4-(17-carboxyheptadecanamido)butanamido]ethoxy}ethoxy)acetamido]ethoxy}ethoxy)acetamido]-[4A,6A,7K,9E,15A,18Q,22V,28Y,30W,31L]hPYY (4-36)] the Ki was 1 nM.
